Organism: Rattus norvegicus
Assay: DrugMatrix - Regimen: Daily Repeat
Assay type: toxicity, organism-based, Sprague-Dawley
Set-up: regimen Daily Repeat, gender Male, age 6-8 weeks
Conditions: in vivo, po, route oral GAVAGE, vehicle .5 % CMC; for ABSOLUTE BASOPHIL / ABSOLUTE EOSINOPHIL / ABSOLUTE LYMPHOCYTE / ABSOLUTE MONOCYTE / ABSOLUTE SEGMENTED NEUTROPHIL / BASOPHIL / EOSINOPHIL / ERYTHROCYTE COUNT / HEMATOCRIT / HEMOGLOBIN / LEUKOCYTE COUNT / LYMPHOCYTE / MEAN CORPUSCULAR HEMOGLOBIN / MEAN CORPUSCULAR HEMOGLOBIN CONCENTRATION / MEAN CORPUSCULAR VOLUME / MONOCYTE / NEUTROPHIL / NUCLEATED RED BLOOD CELLS / PLATELET COUNT: tissue Blood; for ALANINE AMINOTRANSFERASE / ALBUMIN / ALKALINE PHOSPHATASE / ASPARTATE AMINOTRANSFERASE / BLOOD UREA NITROGEN / CARBON DIOXIDE / CHLORIDE / CHOLESTEROL / CREATINE PHOSPHOKINASE / CREATININE / GLUCOSE / LACTATE DEHYDROGENASE / LIPASE / PHOSPHORUS / POTASSIUM / SODIUM / TOTAL BILIRUBIN / TOTAL PROTEIN / URIC ACID: tissue Plasma
[1] = 0 mg/kg, 72 h, dose level Control, time 3 day
[2] = 0 mg/kg, 120 h, dose level Control, time 5 day
[3] = 0.1 mg/kg, 72 h, dose level Low, time 3 day

## CCCN1C[C@H](CSC)C[C@@H]2c3cccc4[nH]cc(c34)C[C@H]21 [PERGOLIDE]
[1]
  ABSOLUTE BASOPHIL: 0 CELLS/uL
  ABSOLUTE EOSINOPHIL: 284.5 CELLS/uL
  ABSOLUTE LYMPHOCYTE: 11670.5 CELLS/uL
  ABSOLUTE MONOCYTE: 420.83 CELLS/uL
  ABSOLUTE SEGMENTED NEUTROPHIL: 1024.17 CELLS/uL
  BASOPHIL: 0%
  EOSINOPHIL: 1.67%
  ERYTHROCYTE COUNT: 5.38 x10E6/uL
  HEMATOCRIT: 34.05%
  HEMOGLOBIN: 12.75 G/DL
  LEUKOCYTE COUNT: 13.4 x10E3/uL
  LYMPHOCYTE: 88.33%
  MEAN CORPUSCULAR HEMOGLOBIN: 23.73 pg
  MEAN CORPUSCULAR HEMOGLOBIN CONCENTRATION: 37.43 G/DL
  MEAN CORPUSCULAR VOLUME: 63.4 fL
  MONOCYTE: 2.83%
  NEUTROPHIL: 7.17%
  NUCLEATED RED BLOOD CELLS: 0 /100WBC
  PLATELET COUNT: 1184.67 x10E3/uL
  ALANINE AMINOTRANSFERASE: 45.33 u/L
  ALBUMIN: 4.3 G/DL
  ALKALINE PHOSPHATASE: 388.83 u/L
  ASPARTATE AMINOTRANSFERASE: 84.83 u/L
  BLOOD UREA NITROGEN: 15.5 mg/dL
  CARBON DIOXIDE: 27 mmol/L
  CHLORIDE: 101.8 MEQ/L
  CHOLESTEROL: 76.67 mg/dL
  CREATINE PHOSPHOKINASE: 301 u/L
  CREATININE: 0.21 mg/dL
  GLUCOSE: 168.83 mg/dL
  LACTATE DEHYDROGENASE: 294.83 u/L
  LIPASE: 9.8 u/L
  PHOSPHORUS: 13.25 mg/dL
  POTASSIUM: 6.41 MEQ/L
  SODIUM: 143.72 MEQ/L
  TOTAL BILIRUBIN: 0.22 mg/dL
  TOTAL PROTEIN: 5.98 G/DL
  URIC ACID: 1.5 mg/dL
[2]
  ABSOLUTE BASOPHIL: 0 CELLS/uL
  ABSOLUTE EOSINOPHIL: 190.67 CELLS/uL
  ABSOLUTE LYMPHOCYTE: 12549.5 CELLS/uL
  ABSOLUTE MONOCYTE: 276 CELLS/uL
  ABSOLUTE SEGMENTED NEUTROPHIL: 1067.17 CELLS/uL
  BASOPHIL: 0%
  EOSINOPHIL: 1.33%
  ERYTHROCYTE COUNT: 5.66 x10E6/uL
  HEMATOCRIT: 35.92%
  HEMOGLOBIN: 13.65 G/DL
  LEUKOCYTE COUNT: 14.08 x10E3/uL
  LYMPHOCYTE: 89%
  MEAN CORPUSCULAR HEMOGLOBIN: 24.12 pg
  MEAN CORPUSCULAR HEMOGLOBIN CONCENTRATION: 38.03 G/DL
  MEAN CORPUSCULAR VOLUME: 63.47 fL
  MONOCYTE: 2%
  NEUTROPHIL: 7.67%
  NUCLEATED RED BLOOD CELLS: 0.17 /100WBC
  PLATELET COUNT: 1251.67 x10E3/uL
  ALANINE AMINOTRANSFERASE: 43.33 u/L
  ALBUMIN: 4.22 G/DL
  ALKALINE PHOSPHATASE: 365.67 u/L
  ASPARTATE AMINOTRANSFERASE: 83.67 u/L
  BLOOD UREA NITROGEN: 18.17 mg/dL
  CARBON DIOXIDE: 28.67 mmol/L
  CHLORIDE: 103.5 MEQ/L
  CHOLESTEROL: 71.5 mg/dL
  CREATINE PHOSPHOKINASE: 284.5 u/L
  CREATININE: 0.21 mg/dL
  GLUCOSE: 161.67 mg/dL
  LACTATE DEHYDROGENASE: 259.67 u/L
  LIPASE: 9.5 u/L
  PHOSPHORUS: 12.45 mg/dL
  POTASSIUM: 6.49 MEQ/L
  SODIUM: 144.25 MEQ/L
  TOTAL BILIRUBIN: 0.2 mg/dL
  TOTAL PROTEIN: 6.1 G/DL
  URIC ACID: 1.73 mg/dL
[3]
  ABSOLUTE BASOPHIL: 0 CELLS/uL
  ABSOLUTE EOSINOPHIL: 0 CELLS/uL
  ABSOLUTE LYMPHOCYTE: 6272.67 CELLS/uL
  ABSOLUTE MONOCYTE: 109.67 CELLS/uL
  ABSOLUTE SEGMENTED NEUTROPHIL: 384.33 CELLS/uL
  BASOPHIL: 0%
  EOSINOPHIL: 0%
  ERYTHROCYTE COUNT: 5.33 x10E6/uL
  HEMATOCRIT: 33.93%
  HEMOGLOBIN: 12.33 G/DL
  LEUKOCYTE COUNT: 6.77 x10E3/uL
  LYMPHOCYTE: 92.67%
  MEAN CORPUSCULAR HEMOGLOBIN: 23.1 pg
  MEAN CORPUSCULAR HEMOGLOBIN CONCENTRATION: 36.37 G/DL
  MEAN CORPUSCULAR VOLUME: 63.57 fL
  MONOCYTE: 1.67%
  NEUTROPHIL: 5.67%
  NUCLEATED RED BLOOD CELLS: 0 /100WBC
  PLATELET COUNT: 1337.33 x10E3/uL
  ALANINE AMINOTRANSFERASE: 45.67 u/L
  ALBUMIN: 4.4 G/DL
  ALKALINE PHOSPHATASE: 479.67 u/L
  ASPARTATE AMINOTRANSFERASE: 81.67 u/L
  BLOOD UREA NITROGEN: 15.33 mg/dL
  CARBON DIOXIDE: 28.67 mmol/L
  CHLORIDE: 102 MEQ/L
  CHOLESTEROL: 85 mg/dL
  CREATINE PHOSPHOKINASE: 214.67 u/L
  CREATININE: 0.21 mg/dL
  GLUCOSE: 139 mg/dL
  LACTATE DEHYDROGENASE: 153.33 u/L
  LIPASE: 9 u/L
  PHOSPHORUS: 12.77 mg/dL
  POTASSIUM: 6.37 MEQ/L
  SODIUM: 146.5 MEQ/L
  TOTAL BILIRUBIN: 0.23 mg/dL
  TOTAL PROTEIN: 6.23 G/DL
  URIC ACID: 1.53 mg/dL

— ChEMBL document CHEMBL3885881, “DrugMatrix”
